From patent US5489524A, “Chimeric protein that has a human Rho motif and deoxyribonuclease activity” (The United States of America as represented by the …, priority 1992, dated 1996) come the findings set out here.

This experiment relates to Mammalian Endo-Exonuclease. Put plainly: ss- and ds-DNase activities of the purified endo-exonuclease with divalent metal ions, NaCl, ATP or GTP (release of acid-soluble radioactivity from 32P-labeled pBR322 DNA). The conditions noted are these: for Activity % ds-DNase / Activity % ss-DNase: 37° C. Format: biochemical, Monkey. The method, then: The assay mixture contained 100 mM Tris-HCl pH 8.0, 10 mM MgCl2, and 17 μg of ^32 P-labelled linearized plasmid DNA. One unit of activity is defined as the amount of deoxyribonuclease which renders 1 μg of DNA acid-soluble in 30 min at 37° C. The plasmid was labeled using a random oligo-priming kit (Pharmacia Fine Chemical).
The ratios are calculated with respect to the activity of 10 mM Mg^2+ (100%).
The nuclease activities of putative recombination nucleases of E. coli are known to be affected by ATP. Moreover S. cerevisiae endo-exonuclease is believed to contain a region homologous to GTP-binding sites. The effects of ATP and GTP on the purified mammalian endo-exonuclease were therefore chosen to study.

Where [1] appears, read: metal ion 0.5 mM, activity with 10 mM Mg^2+ = 100%.
Where [2] appears, read: metal ion 5.0 mM, activity with 10 mM Mg^2+ = 100%.
Setting [3] is: metal ion 10.0 mM, reference = 100%.
The mark [4] stands for this setting: metal ion […], activity with 10 mM Mg^2+ = 100%.
The mark [5] stands for this setting: 0.1 mM nucleotide added, 10 mM Mg^2+.
Where [6] appears, read: 1.0 mM nucleotide added, 10 mM Mg^2+.
Where [7] appears, read: metal ion 0.1 mM, activity with 10 mM Mg^2+ = 100%.
Where [8] appears, read: metal ion 1.0 mM, activity with 10 mM Mg^2+ = 100%.

Turning to `[Mg+2]` [Mg^2+], the “optimal concentration for ds-DNase” value was 2.5 mM and the “optimal concentration for ss-DNase” value is reported as 0.5 mM. Also, the “Ratio of Activities for ss/ds-DNase” value (metal ion 0.5 mM) was determined as 2.2. Under setting [1], the “Activity % ds-DNase” value is reported as 128% and the “Activity % ss-DNase” value came out at 217%. Under setting [2], the “Activity % ds-DNase” value amounted to 120% and the “Activity % ss-DNase” value was 173%. For the same molecule, under “metal ion 10.0 mM”, the “Ratio of Activities for ss/ds-DNase” value amounted to 1.3. In addition, under setting [3], the “Activity % ds-DNase” value stood at 100% and the “Activity % ss-DNase” value is reported as 100%. In addition, under setting [4], the “Activity % ds-DNase” value is 168% and the “Activity % ss-DNase” value worked out at 203%.
Turning to `Nc1nc2c(ncn2[C@@H]2O[C@H](COP(=O)(O)OP(=O)(O)OP(=O)(O)O)[C@@H](O)[C@H]2O)c(=O)[nH]1` [GTP], the “effect on ds-DNase activity” value (0.1 mM) was “slight enhancement of ds-DNase activity”. Besides, under setting [5], the “Activity % ds-DNase” value was 112% and the “Activity % ss-DNase” value amounted to 85%. Moreover, under setting [6], the “Activity % ds-DNase” value is given as 73% and the “Activity % ss-DNase” value turned out to be 68%. For the setting “0.1-1.0 mM”, the “effect on ss-DNase and ds-DNase activities” value was “slightly inhibited”.
Consider `[Zn+2]` [Zn^2+], for which the “ability to replace Mg^2+ as cofactor” value is recorded as “partially substitute for Mg^2+” and the “concentration with inhibitory effects on the nuclease activities” value is listed as no less than 0.25 mM. Moreover, under setting [7], the “Activity % ds-DNase” value was 70% and the “Activity % ss-DNase” value was found to be 75%. Under setting [1], the “Activity % ds-DNase” value was 0% and the “Activity % ss-DNase” value is recorded as 0%. Further, the “Activity % ss-DNase” value under setting [8] stood at 0%. Moreover, under setting [4], the “Activity % ds-DNase” value is recorded as 0% and the “Activity % ss-DNase” value was 0%.
For the molecule `[Mn+2]` [Mn^2+], the “ability to replace Mg^2+ as cofactor” value is given as “partially substitute for Mg^2+” and the “concentration with inhibitory effects on the nuclease activities” value is no less than 2.0 mM. The “Ratio of Activities for ss/ds-DNase” value (metal ion 0.5 mM) was 1.7. Under setting [1], the “Activity % ds-DNase” value was 195% and the “Activity % ss-DNase” value was found to be 258%. Further, under “metal ion 1.0 mM”, the “Ratio of Activities for ss/ds-DNase” value is 1.4. In addition, under setting [8], the “Activity % ds-DNase” value is 212% and the “Activity % ss-DNase” value stood at 215%. Moreover, the “Activity % ss-DNase” value (metal ion 2.0 mM, activity with 10 mM Mg^2+ = 100%) stood at 0%. Further, the “Activity % ss-DNase” value under setting [2] was determined as 0%. Also, under setting [4], the “Activity % ds-DNase” value was determined as 0% and the “Activity % ss-DNase” value was 0%.
